Measurements reported in US11951204B2, “Cell-penetrating peptides and composition including the same” (S-SKIN. CO., LTD., priority 2022, dated 2024).
Several values for one entry are separate records, joined by “and”; a condition that tells them apart may be missing. Identical values can stand only once. Ends that are not written are not given here.

Legend:
[1] = test system: HDF-N; test: Cytotoxicity assay of difunctional peptide (WST-1, microscopy); type: cell-based, human; conditions: for change in the appearance of the cells (microscope): 12.5 μM to 100 μM
[2] = as above; type: cell-based, human; conditions: human, HDF-N cells, HDF-N, read-out: cell proliferation rate / survival rate (WST-1); for viability at 24 h, 12.5 µM: 12.5 μM peptide; for viability at 24 h, 25 µM: 25 μM peptide; for viability at 24 h, 50 µM: 50 μM peptide; for viability at 24 h, 100 µM: 100 μM peptide
[3] = test system: collagen synthesis in HDF-N cells; test: Synthesis of collagen, PIP (procollagen Type 1C-peptide) ELISA; type: cell-based, human; conditions: 12.5 μM, 24 hours
Method: HDF-N cells were inoculated at a concentration of 1×10^4 cells/well into a 96-well plate and incubated for 24 hours. Then, the medium was removed, followed by washing twice with PBS, and replaced with a serum-free medium. Thereafter, 12.5 μM KTTKS (SEQ ID NO: 5), Spep001-KTTKS (SEQ ID NO: 6) and pal-KTTKS were added to each well and then incubated for 24 hours. Then, 10 μL of the cell culture fluid was obtained and centrifuged at 800 rpm for 5 minutes. Thereafter, the degree of synthesis of collagen was checked using a PIP (procollagen Type 1C-peptide) ELISA kit (MK101, Takara), and the result thereof is shown in FIG. 10 and Table 8 below.

[4] = test system: HDF-N cells; type: cell-based, human; conditions: for Cell viability(%): human, 24 h, 12.5 μM
Method: (§1) Cytotoxicity of the cell-penetrating multifunctional peptide according to Example 1 was checked. Specifically, HaCaT cells (human keratinocytes) were inoculated at a concentration of 1.5×10^4 cells/well into a 96-well plate and incubated for 24 hours. Then, the medium was removed, followed by washing once with PBS, and replaced with a serum-free medium. The cells were treated with Spep001 (SEQ ID NO: 1), Spep002 (SEQ ID NO: 8) or Spep003 (SEQ ID NO: 9) at a concentration of 0 μM, 25 μM, 50 μM, 100 μM or 200 μM and then further incubated for 24 hours. Herein, culture conditions were maintained at 37° C. with 5% CO2.
(§2) Also, at the time of completion of incubation, a WST-1 assay (Water Soluble Tetrazolium salt-1, EZ-assay kit, DoGenBio) was conducted. Specifically, 100 μL of a WST-1 solution was added to the well of cells after the completion of further incubation and then incubated for 3 hours. Thereafter, the absorbance at 450 nm was measured using a microplate spectrophotometer (Multiskan™ GO, thermo), and the result thereof is shown in FIG. 2B and Table 2 below.
HDF-N cells were treated with 12.5 μM KTTKS (SEQ ID NO: 5), Spep001-KTTKS (SEQ ID NO: 6) and pal-KTTKS which are peptides fabricated in Example 9. The appearance and proliferation rate of the cells were measured as in Example 3, and the results thereof are shown in FIG. 9A(i) to FIG. 9A(iv), FIG. 9B and Table 7 below.

[5] = test system: HaCaT cells (human keratinocytes); test: Cytotoxicity assay (WST-1, microscopy) in HaCaT cells; type: cell-based; conditions: for cytotoxicity: HaCaT cells; for change in the appearance of the cells (microscope): HaCaT, all concentrations
Method: as §1
(§3) At the time of completion of further incubation, the appearance of the cells were imaged by a microscope, and the result thereof is shown in FIG. 2A(i) to FIG. 2A(xx).
as §2
(§4) Herein, all the result values are expressed in mean±standard deviation. The analysis result of each item was statistically analyzed by a 2-way analysis of variance (ANOVA) test. A Bonferroni post-test was conducted at a P value of *p<0.05 and **p<0.01 only when the significance was determined by ANOVA test. GraphPad prism 5.0.1 (GraphPad Software Inc., San Diego, CA, USA) was used as a statistical software program.

[6] = as above; type: cell-based, human; conditions: human, HaCaT cells (keratinocytes); for viability at 24 h, 25 µM / viability at 24 h, 50 µM / viability at 24 h, 100 µM / viability at 24 h, 200 µM: HaCaT, read-out: survival rate (WST-1); for viability at 24 h, 25 µM: 25 μM peptide; for viability at 24 h, 50 µM: 50 μM peptide; for viability at 24 h, 100 µM: 100 μM peptide; for viability at 24 h, 200 µM: 200 μM peptide; for viability at 24 h: at all concentrations (25-200 μM), read-out: survival rates of the HaCaT cells
Method: as §1, §3, §2, §4

[7] = test system: HDF-N (human dermal fibroblast-neonatal) cells; test: Cytotoxicity assay (WST-1, microscopy) in HDF-N cells; type: cell-based; conditions: for cytotoxicity: HDF-N cells; for change in the appearance of the cells (microscope): HDF-N, all concentrations
Method: as §1, §2
(§5) The appearance of HDF-N (human dermal fibroblast-neonatal) cells were imaged by a microscope as in Example 3, and the result thereof is shown in FIG. 3A(i) to FIG. 3A(xx). However, the HDF-N cells were inoculated at a concentration of 1.0×10^4 cells/well into a 96-well plate.

[8] = as above; type: cell-based, human; conditions: human, HDF-N cells (dermal fibroblasts, neonatal); for viability at 24 h, 25 µM / viability at 24 h, 50 µM / viability at 24 h, 100 µM / viability at 24 h, 200 µM: HDF-N, read-out: survival rate (WST-1); for viability at 24 h, 25 µM: 25 μM peptide; for viability at 24 h, 50 µM: 50 μM peptide; for viability at 24 h, 100 µM: 100 μM peptide; for viability at 24 h, 200 µM: 200 μM peptide; for viability at 24 h: at all concentrations (25-200 μM), read-out: survival rates of the HDF-N cells
Method: as §1, §2, §5

Row | Substance | change in the appearance of the cells (microscope) [1] | viability at 24 h, 12.5 µM [2] [%] | viability at 24 h, 25 µM [2] [%] | viability at 24 h, 50 µM [2] [%] | viability at 24 h, 100 µM [2] [%] | change in the appearance of the cells (microscope) [4] | cytotoxicity [5] | change in the appearance of the cells (microscope) [5] | viability at 24 h, 25 µM [6] [%] | viability at 24 h, 50 µM [6] [%] | viability at 24 h, 100 µM [6] [%] | viability at 24 h, 200 µM [6] [%] | viability at 24 h [6] [%] | cytotoxicity [7] | change in the appearance of the cells (microscope) [7] | viability at 24 h, 25 µM [8] [%] | viability at 24 h, 50 µM [8] [%] | viability at 24 h, 100 µM [8] [%] | viability at 24 h, 200 µM [8] [%] | viability at 24 h [8] [%] | further results
1 | H-KTTKS-OH [KTTKS, reference compound] | no change in the appearance | 104 ± 13 | 107 ± 20.1 | 105 ± 4.28 | 119 ± 11.6 | no change in the appearance |  |  |  |  |  |  |  |  |  |  |  |  |  |  | PIP (collagen in cell culture fluid) [3]: 203.24 ng/mL and 203.24 ± 10.74 ng/mL; amount of collagen synthesized based on the control [3]: 159.99%; Cell viability(%) [4]: 110.58%
2 | KRRWRKIPKR [Spep002, KRRWRKIPKR] |  |  |  |  |  |  | do not express cytotoxicity | no change in the appearance | 104.7 ± 0.17 | 103 ± 1.97 | 101 ± 1.97 | 99.01 ± 0.62 | ≥ 90 | do not express cytotoxicity | no change in the appearance | 102 ± 4.11 | 104.6 ± 0.75 | 108 ± 1.66 | 101 ± 2.44 | ≥ 90 | 
3 | KTTKSRLRLRQRRRR [KTTKS-Spep001, KTTKSRLRLRQRRRR] | no change in the appearance | 111 ± 8.6 | 120 ± 4.46 | 107 ± 7.61 | 94.1 ± 3.2 |  |  |  |  |  |  |  |  |  |  |  |  |  |  |  | cell proliferation (in words) ([1]; compared to control (0 μM)): maintained at a level similar to that of a control
4 | RKRWLRKPRP [Spep003, RKRWLRKPRP] |  |  |  |  |  |  | do not express cytotoxicity | no change in the appearance | 98.3 ± 4.45 | 98.6 ± 1.01 | 103 ± 0.6 | 99.9 ± 1.79 | ≥ 90 | do not express cytotoxicity | no change in the appearance | 118 ± 5.3 | 104 ± 1.71 | 108 ± 3.07 | 113.5 ± 0.59 | ≥ 90 | 
5 | RLRLRQRRRR [Spep001, RLRLRQRRRR] |  |  |  |  |  |  | do not express cytotoxicity | no change in the appearance | 103 ± 1.62 | 103 ± 2.21 | 106 ± 2.23 | 110 ± 7.48 | ≥ 90 | do not express cytotoxicity | no change in the appearance | 93.39 ± 0.66 | 101 ± 2.71 | 95 ± 1.53 | 94.5 ± 2.41 | ≥ 90 | 
6 | RLRLRQRRRRKTTKS [Spep001-KTTKS, RLRLRQRRRRKTTKS] | no change in the appearance | 167 ± 13.4 | 148 ± 8.42 | 104 ± 3.16 | 106 ± 11.4 | no change in the appearance |  |  |  |  |  |  |  |  |  |  |  |  |  |  | cell proliferation rate / survival rate (WST-1) ([1]; HDF-N, 12.5 μM peptide): 167.45±13.38%; Cell viability(%) [4]: 215.58%
